# Results published in the supplement of paper PMC10307832.
# Columns and labels:
# Test in all cases: relative viability (nuclei count vs DMSO), 5 days (fraction); higher = more cells survive
# Tivantinib + Lapatinib = compound: O=C1NC(=O)[C@@H](c2cn3c4c(cccc24)CCC3)[C@@H]1c1c[nH]c2ccccc12 [Tivantinib] + CS(=O)(=O)CCNCc1ccc(-c2ccc3ncnc(Nc4ccc(OCc5cccc(F)c5)c(Cl)c4)c3c2)o1 [Lapatinib] (partner 2 µM)
# Summary of the method: (§1)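 Lung cancer cell lines were pin-tool dosed in 1536-well plates on the day after seeding, with either a lone drug or a fixed anchor-drug dose plus five library-drug doses (not always all listed) in √10 steps. Nuclei were counted on 4× images after 5 days. Relative viability is the ratio of treated-well to vehicle-well nuclei counts, with each value a median of duplicate plates.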
# Crenolanib + Phenformin = compound: CC1(COc2ccc3c(c2)ncn3-c2ccc3cccc(N4CCC(N)CC4)c3n2)COC1 [Crenolanib] + N=C(N)NC(=N)NCCc1ccccc1 [Phenformin] (partner 250 µM)
# Summary of the method: as §1
# Crenolanib + Vorinostat = compound: CC1(COc2ccc3c(c2)ncn3-c2ccc3cccc(N4CCC(N)CC4)c3n2)COC1 [Crenolanib] + O=C(CCCCCCC(=O)Nc1ccccc1)NO [Vorinostat] (partner 1 µM)
# Summary of the method: as §1
# Tivantinib + Vorinostat = compound: O=C1NC(=O)[C@@H](c2cn3c4c(cccc24)CCC3)[C@@H]1c1c[nH]c2ccccc12 [Tivantinib] + O=C(CCCCCCC(=O)Nc1ccccc1)NO [Vorinostat] (partner 1 µM)
# Summary of the method: as §1
Cell Line,relative viability (Tivantinib + Lapatinib; first compound 0.01 µM),relative viability (Tivantinib + Lapatinib; first compound 0.03162 µM),relative viability (Tivantinib + Lapatinib; first compound 0.1 µM),relative viability (Tivantinib + Lapatinib; first compound 0.3162 µM),relative viability (Crenolanib + Phenformin; first compound 0.01 µM),relative viability (Crenolanib + Phenformin; first compound 0.03162 µM),relative viability (Crenolanib + Phenformin; first compound 0.1 µM),relative viability (Crenolanib + Phenformin; first compound 0.3162 µM),relative viability (Crenolanib + Phenformin; first compound 1 µM),relative viability (Crenolanib + Vorinostat; first compound 0.01 µM),relative viability (Crenolanib + Vorinostat; first compound 0.03162 µM),relative viability (Crenolanib + Vorinostat; first compound 0.1 µM),relative viability (Crenolanib + Vorinostat; first compound 0.3162 µM),relative viability (Crenolanib + Vorinostat; first compound 1 µM),relative viability (Tivantinib + Vorinostat; first compound 0.01 µM),relative viability (Tivantinib + Vorinostat; first compound 0.03162 µM),relative viability (Tivantinib + Vorinostat; first compound 0.1 µM),relative viability (Tivantinib + Vorinostat; first compound 0.3162 µM)
NCI-H838,1.04,0.96,0.891,0.894,0.562,0.586,0.632,0.539,0.527,0.747,0.74,0.698,0.722,0.738,0.728,0.724,0.693,0.776
HARA,0.888,0.651,0.636,0.82,0.471,0.464,0.398,0.391,0.488,0.568,0.499,0.532,0.626,0.502,0.446,0.512,0.607,0.434
SK-MES-1,0.441,0.426,0.387,0.417,0.655,0.635,0.687,0.636,0.583,1.15,1.16,0.954,1.1,1.05,1.16,0.945,1.06,0.935
LXF-289,0.925,0.861,0.858,0.968,0.514,0.538,0.523,0.524,0.483,0.734,0.798,0.712,0.723,0.637,0.756,0.725,0.733,0.778
HOP-62,1.15,,0.956,1.16,0.616,0.711,0.722,0.815,0.7,0.653,0.542,0.635,0.829,0.552,0.606,0.301,0.554,0.803
LK-2,0.955,,0.841,0.872,0.472,0.446,0.411,0.314,0.317,0.326,0.259,0.273,0.354,0.311,0.219,0.34,0.217,0.311
HCC-44,1.02,1.04,0.998,1,0.267,0.207,0.188,0.184,0.169,1.06,1.05,1.19,1.06,1.05,1.09,1.07,1.1,1.07
BEN,0.623,0.617,0.591,0.691,0.259,0.235,0.267,0.255,0.271,0.569,0.516,0.581,0.595,0.555,0.591,0.566,0.528,0.515
NCI-H2347,0.891,0.923,0.956,1,0.381,,,0.546,0.469,0.629,0.807,0.383,0.707,0.645,0.622,0.436,0.518,0.498
NCI-H1395,1.23,1.18,0.981,0.992,0.448,0.455,0.497,0.469,0.436,0.766,0.601,0.96,0.689,0.695,0.749,0.802,0.722,0.666
201T,1.08,1.01,1.04,1.14,0.438,0.446,0.438,0.446,0.435,0.985,1,0.929,0.955,0.983,0.894,0.835,0.898,0.907
NCI-H2170,0.157,0.252,0.277,,0.467,0.41,0.387,0.326,0.387,0.793,0.928,0.697,0.985,0.793,0.852,0.812,0.74,
NCI-H520,0.893,0.822,0.638,0.795,0.605,0.574,0.75,0.584,0.616,0.703,0.641,0.733,0.765,0.652,0.672,0.672,0.694,0.703
NCI-H727,0.824,0.689,0.802,,0.636,0.544,0.497,0.565,0.599,1.35,1.31,1.06,1.32,1.07,1.11,1.22,1.35,
HCC-366,0.89,1.03,0.99,1.03,0.612,0.617,0.591,0.557,0.587,0.377,0.357,0.335,0.426,0.216,0.389,0.287,0.373,0.415
NCI-H1650,0.879,0.547,0.702,0.861,0.527,0.448,0.431,0.383,0.353,0.454,0.516,0.582,0.812,0.676,0.605,0.448,0.651,0.553
ABC-1,,1.13,1.17,0.869,0.21,0.265,0.22,0.261,0.257,0.991,0.679,1.13,1.17,0.934,1.44,1.32,1.01,1.21
LCLC-97TM1,1.04,0.852,1.04,0.889,0.476,0.477,0.457,0.455,0.455,0.822,0.83,0.792,0.832,0.536,0.71,0.284,0.671,0.833
NCI-H460,0.905,0.922,0.889,0.99,0.549,0.514,0.518,0.506,0.473,0.743,0.701,0.688,1.16,0.768,0.665,0.67,0.71,0.404
H3255,0.275,0.234,0.294,,0.432,0.326,0.386,0.321,0.35,0.811,0.744,0.838,0.853,0.726,,0.843,0.753,0.295
